This is an account of results in patent US10323036B2 (Nimbus Lakshmi, Inc., priority 2016, dated 2019).

A value given as a limit tells only on which side of the number the result lay.

For the first test, the target named is human TYK2 (JH2domain-pseudokinase) (Homo sapiens (Human), UniProt P29597). Briefly: TYK2 JH2 Domain Binding Assay (KINOMEscan). As to conditions: Table 4, JH2 binding assay; read-out: JH2 Kd.
human TYK2 (JH2domain-pseudokinase), sequence (P29597 556-888): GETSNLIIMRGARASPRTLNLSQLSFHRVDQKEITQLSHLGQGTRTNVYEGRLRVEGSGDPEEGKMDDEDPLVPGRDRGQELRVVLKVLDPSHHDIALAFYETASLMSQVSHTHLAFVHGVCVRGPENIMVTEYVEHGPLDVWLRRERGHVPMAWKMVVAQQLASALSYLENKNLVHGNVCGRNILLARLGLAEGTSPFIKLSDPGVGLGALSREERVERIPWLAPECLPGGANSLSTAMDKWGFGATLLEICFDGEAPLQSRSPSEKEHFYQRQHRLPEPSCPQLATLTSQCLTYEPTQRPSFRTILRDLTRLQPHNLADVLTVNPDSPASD
For orientation: Kd means the equilibrium constant for the complex coming apart. `CN(c1cc(F)c(F)cc1Nc1cc(NC(=O)C2CC2)nc2[nH]n(C)c(=O)c12)S(C)(=O)=O` [Compound I-230, N-(4-((4,5-difluoro-2-(N-methylmethylsulfonamido)phenyl)amino)-2-methyl-3-oxo-2,3-dihydro-1H-pyrazolo[3,4-b]pyridin-6-yl)cyclopropanecarboxamide]: the Kd lay in the range of 0.5 to 1 nM. As for `COc1c(Nc2cc(NC(=O)C3CC3)nc3[nH]n(C)c(=O)c23)cccc1C(=O)O` [Compound I-231, 3-((6-(cyclopropanecarboxamido)-2-methyl-3-oxo-2,3-dihydro-1H-pyrazolo[3,4-b]pyridin-4-yl)amino)-2-methoxybenzoic acid], the equilibrium dissociation constant (Kd) lay within 1 to 10 nM.

Turning to `CN(c1cc(C2CC2)ccc1Nc1cc(NC(=O)C2CC2)nc2[nH]n(C)c(=O)c12)S(C)(=O)=O` [Compound I-232], the Kd was less than 0.1 nM. In the case of `CN(c1cc(C2CCOCC2)ccc1Nc1cc(NC(=O)C2CC2)nc2[nH]n(C)c(=O)c12)S(C)(=O)=O` [Compound I-234], the Kd lay within 0.1 to 0.5 nM. Consider `CN(c1cc(C(F)(F)F)ccc1Nc1cc(NC(=O)C2CC2)nc2[nH]n(C)c(=O)c12)S(C)(=O)=O` [Compound I-235, N-(2-methyl-4-((2-(N-methylmethylsulfonamido)-4-(trifluoromethyl)phenyl)amino)-3-oxo-2,3-dihydro-1H-pyrazolo[3,4-b]pyridin-6-yl)cyclopropanecarboxamide], for which the Kd was 0.1 to 0.5 nM. On to `CN(c1cc(C2CCC2)ccc1Nc1cc(NC(=O)[C@@H]2C[C@@H]2F)nc2[nH]n(C)c(=O)c12)S(C)(=O)=O` [Compound I-236, (1S,2S)-N-(4-((4-cyclobutyl-2-(N-methylmethylsulfonamido)phenyl)amino)-2-methyl-3-oxo-2,3-dihydro-1H-pyrazolo[3,4-b]pyridin-6-yl)-2-fluorocyclopropane-1-carboxamide], for which the Kd is more than 10 nM.

As for `Cn1[nH]c2nc(NC(=O)[C@@H]3CC3(F)F)cc(Nc3ccc(C4CC4)cc3S(C)(=O)=O)c2c1=O` [Compound I-237], the Kd was 1 to 10 nM. As for `Cn1[nH]c2nc(NC(=O)[C@H]3CC3(F)F)cc(Nc3ccc(C4CC4)cc3S(C)(=O)=O)c2c1=O` [Compound I-238, (R)-N-(4-((4-cyclopropyl-2-(methylsulfonyl)phenyl)amino)-2-methyl-3-oxo-2,3-dihydro-1H-pyrazolo[3,4-b]pyridin-6-yl)-2,2-difluorocyclopropane-1-carboxamide], the Kd fell in the range of 0.1 to 0.5 nM. For the compound `Cn1[nH]c2nc(NC(=O)C3CC3(F)F)cc(Nc3ccc(C4CC4)cc3S(C)(=O)=O)c2c1=O` (stereo not drawn) [Compound I-239, N-(4-((4-cyclopropyl-2-(methylsulfonyl)phenyl)amino)-2-methyl-3-oxo-2,3-dihydro-1H-pyrazolo[3,4-b]pyridin-6-yl)-2,2-difluorocyclopropane-1-carboxamide], the Kd is 0.1 to 0.5 nM.

Consider `CN(c1cc(C2CCCOC2)ccc1Nc1cc(NC(=O)C2CC2)nc2[nH]n(C)c(=O)c12)S(C)(=O)=O` (stereo not drawn) [Compound I-240], for which the Kd is 0.1 to 0.5 nM. Still for that read-out and setting: then `COc1c(Nc2cc(N)nc3[nH]n(C)c(=O)c23)cccc1C(=O)O` [Compound I-241, 3-((6-amino-2-methyl-3-oxo-2,3-dihydro-1H-pyrazolo[3,4-b]pyridin-4-yl)amino)-2-methoxybenzoic acid], with more than 10 nM.

The same test, now with this note: Table 5, Tyk2 JH2 Domain Binding Assay; read-out: JH2 Kd.
With `COc1c(Nc2cc(NC(=O)C3CC3)ncc2-c2nnc(CO)o2)cccc1-c1ncn(C)n1` [VIII-5, N-(5-(5-(hydroxymethyl)-1,3,4-oxadiazol-2-yl)-4-((2-methoxy-3-(1-methyl-1H-1,2,4-triazol-3-yl)phenyl)amino)pyridin-2-yl)cyclopropanecarboxamide], the Kd lay in the range of 1 to 10 nM.

For `COc1c(Nc2cc(NC(=O)C3CC3)ncc2-c2ncc(CO)s2)cccc1-c1ncn(C)n1` [VIII-6, N-(5-(5-(hydroxymethyl)thiazol-2-yl)-4-((2-methoxy-3-(1-methyl-1H-1,2,4-triazol-3-yl)phenyl)amino)pyridin-2-yl)cyclopropanecarboxamide], the Kd lay within 10 to 100 nM. Turning to `COc1c(Nc2cc(NC(=O)C3CC3)ncc2-c2nnc(C)s2)cccc1-c1ncn(C)n1` [VIII-7, N-(4-((2-methoxy-3-(1-methyl-1H-1,2,4-triazol-3-yl)phenyl)amino)-5-(5-methyl-1,3,4-thiadiazol-2-yl)pyridin-2-yl)cyclopropanecarboxamide], the dissociation constant Kd lay in the range of 1 to 10 nM.

Turning to `COc1c(Nc2cc(NC(=O)C3CC3)ncc2-c2ccon2)cccc1-c1nnn(C)n1` [VIII-8, N-(5-(isoxazol-3-yl)-4-((2-methoxy-3-(2-methyl-2H-tetrazol-5-yl)phenyl)amino)pyridin-2-yl)cyclopropanecarboxamide], the Kd is more than 100 nM.

Consider `COc1c(Nc2cc(NC(=O)C3CC3)ncc2-c2noc(CO)n2)cccc1-c1ncn(C)n1` [VIII-9, N-(5-(5-(hydroxymethyl)-1,2,4-oxadiazol-3-yl)-4-((2-methoxy-3-(1-methyl-1H-1,2,4-triazol-3-yl)phenyl)amino)pyridin-2-yl)cyclopropanecarboxamide], for which the Kd is more than 100 nM. With `COc1c(Nc2cc(NC(=O)C3CC3)ncc2-n2cc(CO)cn2)cccc1-c1ncn(C)n1` [VIII-10, N-(5-(4-(hydroxymethyl)-1H-pyrazol-1-yl)-4-((2-methoxy-3-(1-methyl-1H-1,2,4-triazol-3-yl)phenyl)amino)pyridin-2-yl)cyclopropanecarboxamide], the Kd is more than 100 nM.

For `COc1c(Nc2cc(NC(=O)C3CC3)ncc2-c2cccnn2)cccc1-c1ncn(C)n1` [VIII-11, N-(4-((2-methoxy-3-(1-methyl-1H-1,2,4-triazol-3-yl)phenyl)amino)-5-(pyridazin-3-yl)pyridin-2-yl)cyclopropanecarboxamide], the Kd is 10 to 100 nM.

For `COc1c(Nc2cc(Nc3ccc(C)nn3)ncc2-c2nnc(CO)o2)cccc1-c1ncn(C)n1` [VIII-12, (5-(4-((2-methoxy-3-(1-methyl-1H-1,2,4-triazol-3-yl)phenyl)amino)-6-((6-methylpyridazin-3-yl)amino)pyridin-3-yl)-1,3,4-oxadiazol-2-yl)methanol], the Kd fell in the range of 0.1 to 1 nM.

On to `COc1c(Nc2cc(Nc3cccc(C#N)n3)ncc2-c2nnc(CO)o2)cccc1-c1ncn(C)n1` [VIII-13, 6-((5-(5-(hydroxymethyl)-1,3,4-oxadiazol-2-yl)-4-((2-methoxy-3-(1-methyl-1H-1,2,4-triazol-3-yl)phenyl)amino)pyridin-2-yl)amino)picolinonitrile], for which the equilibrium dissociation constant (Kd) lay in the range of 0.1 to 1 nM. For the compound `COc1c(Nc2cc(Nc3cc(C)nc(C)n3)ncc2-c2nnc(CO)o2)cccc1-c1ncn(C)n1` [VIII-14, (5-(6-((2,6-dimethylpyrimidin-4-yl)amino)-4-((2-methoxy-3-(1-methyl-1H-1,2,4-triazol-3-yl)phenyl)amino)pyridin-3-yl)-1,3,4-oxadiazol-2-yl)methanol], the Kd is 0.1 to 1 nM.

`COc1c(Nc2cc(Nc3cccc(C#N)n3)ncc2-c2ncc(Cl)s2)cccc1-c1nnn(C)n1` [VIII-15, 6-((5-(5-chlorothiazol-2-yl)-4-((2-methoxy-3-(2-methyl-2H-tetrazol-5-yl)phenyl)amino)pyridin-2-yl)amino)picolinonitrile]: the dissociation constant Kd lay within 1 to 10 nM. As to `COc1c(Nc2cc(Nc3ccc(C)nn3)ncc2-c2ncc(Cl)s2)cccc1-c1nnn(C)n1` [VIII-16, 5-(5-chlorothiazol-2-yl)-N4-(2-methoxy-3-(2-methyl-2H-tetrazol-5-yl)phenyl)-N2-(6-methylpyridazin-3-yl)pyridine-2,4-diamine], the Kd was 0.1 to 1 nM. On to `COCc1ccnc(Nc2cc(Nc3cccc(-c4nnn(C)n4)c3OC)c(-c3ncc(Cl)s3)cn2)c1` [VIII-17, 5-(5-chlorothiazol-2-yl)-N4-(2-methoxy-3-(2-methyl-2H-tetrazol-5-yl)phenyl)-N2-(4-(methoxymethyl)pyridin-2-yl)pyridine-2,4-diamine], for which the Kd was 0.1 to 1 nM. Same read-out and setting: then `CNc1nn(-c2cccc(-c3ncn(C)n3)c2OC)c2cc(NC(=O)C3CC3)ncc12` [XVI-1, N-(1-(2-methoxy-3-(1-methyl-1H-1,2,4-triazol-3-yl)phenyl)-3-(methylamino)-1H-pyrazolo[4,3-c]pyridin-6-yl)cyclopropanecarboxamide], with 10 to 100 nM. With `CNc1nc(-c2cccc(-c3nnn(C)n3)c2OC)n2cc(NC(=O)C3CC3)ncc12` [XVI-2], the Kd is more than 100 nM. Turning to `CNc1nn(-c2cccc(-c3nnn(C)n3)c2OC)c2cc(NC(=O)C3CC3)ncc12` [XVI-3, N-(1-(2-methoxy-3-(2-methyl-2H-tetrazol-5-yl)phenyl)-3-(methylamino)-1H-pyrazolo[4,3-c]pyridin-6-yl)cyclopropanecarboxamide], the Kd is more than 100 nM.

On to `CCc1nn(-c2cccc(-c3nnn(C)n3)c2OC)c2cc(NC(=O)C3CC3)ncc12` [XVI-4, N-(3-ethyl-1-(2-methoxy-3-(2-methyl-2H-tetrazol-5-yl)phenyl)-1H-pyrazolo[4,3-c]pyridin-6-yl)cyclopropanecarboxamide], for which the Kd lay within 0.1 to 1 nM. On the same count and under the same terms, then `CCn1nc(-c2cccc(-c3nnn(C)n3)c2OC)c2cc(NC(=O)C3CC3)ncc21` [XVI-5, N-(1-ethyl-3-(2-methoxy-3-(2-methyl-2H-tetrazol-5-yl)phenyl)-1H-pyrazolo[3,4-c]pyridin-5-yl)cyclopropanecarboxamide], with 10 to 100 nM; and `CCn1cc(-c2cccc(-c3nnn(C)n3)c2OC)c2cc(NC(=O)C3CC3)ncc21` [XVI-6, N-(1-ethyl-3-(2-methoxy-3-(2-methyl-2H-tetrazol-5-yl)phenyl)-1H-pyrrolo[2,3-c]pyridin-5-yl)cyclopropanecarboxamide], with 10 to 100 nM.

Still in this test, the particulars now being: Tyk2 JH2 Domain Binding Assay; read-out: Kd.
For the compound `CNc1nn(-c2cccc(-c3ncn(C)n3)c2OC)c2cc(NC(=O)C3CC3)ncc12` [XVI-1, N-(1-(2-methoxy-3-(1-methyl-1H-1,2,4-triazol-3-yl)phenyl)-3-(methylamino)-1H-pyrazolo[4,3-c]pyridin-6-yl)cyclopropanecarboxamide], the Kd is 7000 to 10000 nM. Still for that read-out and setting: then `CNc1nc(-c2cccc(-c3nnn(C)n3)c2OC)n2cc(NC(=O)C3CC3)ncc12` [XVI-2], with 10 to 185 nM. In the case of `CNc1nn(-c2cccc(-c3nnn(C)n3)c2OC)c2cc(NC(=O)C3CC3)ncc12` [XVI-3, N-(1-(2-methoxy-3-(2-methyl-2H-tetrazol-5-yl)phenyl)-3-(methylamino)-1H-pyrazolo[4,3-c]pyridin-6-yl)cyclopropanecarboxamide], the Kd lay within 7000 to 10000 nM.
